One series concerns DU145 (prostate cancer). Briefly: Effect on tumor cell lines (Latham assay), DU145. It is filed as cell-based. The note with it: Homo sapiens, DU-145; DU145 cells, examined 96 hours after treatment; read-out: Potencies (IC50) DU 145. On the procedure:
(§1) The plated cells were treated 24 hours later with a compound of the invention dissolved in DMSO at multiple concentrations ranging from 0.01 μM to 100 μM. […] When necessary, the total number of viable cells was determined by trypsinizing the wells and counting the number of viable cells, as determined by trypan blue exclusion, using a hemacytometer.

Series [1] deals with K562 (chronic myelogenous leukemia). Briefly: Effect on tumor cell lines (Latham assay), K562. It is filed as cell-based. The note with it: Homo sapiens; K562 cells, examined 96 hours after treatment; read-out: Potencies (IC50) K 562. On the procedure:
as §1

The structures appear in SMILES notation.

For orientation: IC50 means the concentration at which inhibition is half-maximal. For orientation: melting point means the temperature of the solid-liquid transition.

Regarding `CSc1ncc2cc(S(=O)(=O)c3ccccc3)c(=O)[nH]c2n1` [Example 68, 2-(methylsulfanyl)-6-(phenylsulfonyl)pyrido[2,3-d]pyrimidin-7(8H)-one], the melting point is 280 °C (dec.). The IC50 with DU145 (prostate cancer) is > 100 µM. Also, the IC50 in series [1] is > 100 µM.
`CCCn1c(=O)c(S(=O)(=O)c2ccccc2)cc2cnc(Nc3cccc4[nH]ccc34)nc21` [Example 45, 2-(1H-indol-4-ylamino)-6-(phenylsulfonyl)-8-propylpyrido[2,3-d]pyrimidin-7(8H)-one] had a melting point of 260 to 261 °C. Besides, the half-maximal inhibitory concentration (IC50) in the series on DU145 (prostate cancer) is 10 to 25 µM. In addition, the IC50 in series [1] fell in the range of 1 to 10 µM.
Taken in the same sequence, the figures for `Cc1ccc(S(=O)(=O)c2cc3cnc(Nc4cccc5cccnc45)nc3n(C)c2=O)cc1` [Example 14, 8-methyl-2-(quinolin-8-ylamino)-6-tosylpyrido[2,3-d]pyrimidin-7(8H)-one] were > 350 °C, 10 to 25 µM and 10 to 25 µM.
Taken in the same sequence, the figures for `CSc1ncc2cc(S(=O)(=O)c3ccc(Cl)cc3)c(=O)n(C3CCCC3)c2n1` [Example 60, 6-(4-chlorophenylsulfonyl)-8-cyclopentyl-2-(methylsulfanyl)pyrido[2,3-d]pyrimidin-7(8H)-one] were 222 to 223 °C, 50 to 100 µM and 50 to 100 µM.
Taken in the same sequence, the figures for `CCCn1c(=O)c(S(=O)(=O)c2ccccc2)cc2cnc(Nc3ccc4[nH]ccc4c3)nc21` [Example 47, 2-(1H-indol-5-ylamino)-6-(phenylsulfonyl)-8-propylpyrido[2,3-d]pyrimidin-7(8H)-one] were 293 to 295 °C, 1 to 10 µM and < 1 µM.
Regarding `COc1ccc(Nc2ncc3cc(S(=O)(=O)c4ccccc4)c(=O)n(C4CCCC4)c3n2)cc1` [Example 56, 2-(4-methoxyphenylamino)-8-cyclopentyl-6-(phenylsulfonyl)pyrido[2,3-d]pyrimidin-7(8H)-one], the melting point turned out to be 201 °C. Besides, the concentration for half-maximal inhibition (IC50) in the series on DU145 (prostate cancer) lay within 25 to 50 µM. In addition, in series [1], the IC50 was in the range of 1 to 10 µM.
Taken in the same sequence, the figures for `Cc1ccc(S(=O)(=O)c2cc3cnc(Nc4ccc5c(c4)CC(=O)N5)nc3n(C)c2=O)cc1` [Example 27, 2-(2-oxoindolin-5-ylamino)-8-methyl-6-tosylpyrido[2,3-d]pyrimidin-7(8H)-one] were 280 °C, 50 to 100 µM and 25 to 50 µM.
`O=c1c(S(=O)(=O)c2ccccc2)cc2cnc(NC3CCCC3)nc2n1C1CCCC1` [Example 61, 8-cyclopentyl-2-(cyclopentylamino)-6-(phenylsulfonyl)pyrido[2,3-d]pyrimidin-7(8H)-one]: the melting point was 209 to 210 °C. Besides, the 50% inhibitory concentration (IC50) in the series on DU145 (prostate cancer) was > 100 µM. The IC50 in series [1] was > 100 µM.
`COc1ccc(Nc2ncc3cc(S(=O)(=O)c4ccc(C)cc4)c(=O)n(C)c3n2)cc1` [Example 20, 2-(4-methoxyphenylamino)-8-methyl-6-tosylpyrido[2,3-d]pyrimidin-7(8H)-one] displayed a melting point of 336 to 340 °C. In addition, in the series on DU145 (prostate cancer), the half-maximal inhibitory concentration (IC50) is > 100 µM. In addition, the IC50 in series [1] was 50 to 100 µM.
Taken in the same sequence, the figures for `Cn1c(=O)c(S(=O)(=O)c2ccc(Br)cc2)cc2cnc(Nc3ccc4[nH]ccc4c3)nc21` [Example 18, 2-(1H-indol-5-ylamino)-6-(4-bromophenylsulfonyl)-8-methylpyrido[2,3-d]pyrimidin-7(8H)-one] were 316 to 320 °C, 1 to 10 µM and 1 to 10 µM.

For the origin of these results see patent US8889696B2, “Substituted pyrido[2,3-d]pyrimidin-7(8H)-ones and therapeutic uses thereof” (Temple University—Of The Commonwealth System Of Higher …, priority 2009, dated 2014).
